Experimental data as given in ChEMBL document CHEMBL4419171, “SMAC mimetic compounds as apoptosis inducers” (2013).

What was measured:
Type in all cases: functional
K562 [1] = assay: Cytotoxicity against human K562 cells assessed as cell viability at 100 nM in presence of 100 nM taxol incubated for 72 hrs by WST1 dye based assay relative to control; conditions: K562, 72 h, read-out: Activity
K562 [2] = assay: Cytotoxicity against human K562 cells assessed as cell viability at 0.1 nM in presence of 100 ng/ml cisplatin incubated for 72 hrs by WST1 dye based assay relative to control
K562 [3] = assay: Cytotoxicity against human K562 cells assessed as cell viability at 10 nM in presence of 10 ng/ml cisplatin incubated for 72 hrs by WST1 dye based assay relative to control
HL-60 = assay: Cytotoxicity against human HL60 cells assessed as cell viability at 10 nM in presence of 100 ng/ml cisplatin incubated for 72 hrs by WST1 dye based assay relative to control

Row | Structure (SMILES) | viability at 0.1 µM (K562 [1]) [%] | Activity (K562 [2]) [%] | Activity (K562 [3]) [%] | Activity (HL-60) [%]
1 | CC[C@H](N)C(=O)N[C@@H]1C(=O)N2[C@@H](CC[C@@H]1Cn1cc(CO[C@H](C)[C@H](NC(=O)[C@H](C)NC)C(=O)N3CCC[C@H]3Cn3nnnc3Sc3ccccc3)nn1)CC[C@H]2C(=O)NC(c1ccccc1)c1ccccc1.O=C(O)C(F)(F)F | 27 | 30 |  | 
2 | CC[C@H](N)C(=O)N[C@@H]1C(=O)N2[C@@H](CC[C@@H]1CO)CC[C@H]2C(=O)NC(c1ccccc1)c1ccccc1.O=C(O)C(F)(F)F |  |  | 48 | 43
